According to patent EP4342468A1, “TOLEBRUTINIB SALT AND CRYSTAL FORM THEREOF, PREPARATION METHOD THEREFOR, PHARMACEUTICAL COMPOSITION THEREOF, AND USE THEREOF” (Hangzhou Solipharma Co., Ltd., priority 2021, dated 2022):
Where a name gives a salt, the structure may show the parent alone. Values belong to the molecule of their own block, whether it stands above or below them.

What was measured:
Type in all cases: physicochemical
[1] = Stability study of the solid forms under long-term, accelerated, light and oxidation conditions (HPLC and XRPD); conditions: for Purity after placing / Purity after: HPLC; for Purity after placing: initial purity 99.46%; for Sample after placing / crystal form after storage: XRPD; for Purity after: initial purity 99.50%
Procedure: In this application, X-ray powder diffraction (XRPD) data were collected using a BrukerD8 Advance diffractometer; parameters are as follows: Cu radiation; wavelength: 1.54Å; Current voltage: 40KV, 40mA; Scan range: 3 to 40°2θ.
In this application, the HPLC parameters for chemical stability and solubility are as follows:
An appropriate amount of Form 2 of tolebrutinib monohydrochloride prepared in example 2-1 of this application was placed under long-term (25°C/60% RH/open), accelerated (40°C/75% RH/open), light (25°C/4500lx/closed), and oxidation (in a urea peroxide atmosphere) conditions. Table 1 Stability of Form 2 of tolebrutinib monohydrochloride
An appropriate amount of tolebrutinib monohydrochloride Form1 sample prepared in Example 3-1 of this application was taken and placed under long-term (25°C/60% RH/open) and accelerated (40°C/75% RH/open) conditions, HPLC and XRPD testing were regularly conducted. Table 2 Stability of Form 1 of tolebrutinib monohydrochloride

[2] = Solubility in water (supersaturated solution, content by HPLC); conditions: for Solubility: 2 hours, monohydrochloride
Description: In this application, the HPLC parameters for chemical stability and solubility are as follows: […]

[3] = Dynamic vapor sorption (DVS) hygroscopicity
Procedure: In this application, dynamic moisture adsorption analysis (DVS) data and isothermal adsorption analysis data were obtained using a TA Instruments Q5000 TGA; parameters are as follows: temperature: 25°C; relative humidity range: 0%RH-80%RH; dm/dt =0.001%/min; equilibration time: 90min; gas: N2; sample pan: platinum pan.

[4] = Compressibility study (tablet compression, hardness, tensile strength); conditions: for hardness: radial breaking force, tablet hardness tester, main pressure 1.8 KN; for diameters / thicknesses: tablet, Φ7.5mm punch, mean main pressure 1.8 KN
Procedure: The tablet compression was conducted using a Tianxiang rotary tablet press. A circular punch with a diameter of 7.5 mm (Φ7.5mm), a filling depth of 17.9 mm and a mean main pressure of 1.8 KN were used. The tablets' radial breaking force (hardness, H) was measured using a tablet hardness tester. The tablets' diameter (D) and thickness (L) were measured using a vernier caliper. The tensile strength (T) of the powder was calculated using the formula T=2H/πDL*9.8. The results are shown in Table 5: Table 5 Compressibility of Form 2 of tolebrutinib monohydrochloride and Form 1 of tolebrutinib monohydrochloride

[5] = Stability of the crystal form in tablets (XRPD before and after storage); conditions: 25°C/60% RH
Procedure: (§1) Following the formulation in Table 6, API, lactose hydrate, polyvinylpyrrolidone, hydroxypropyl cellulose, microcrystalline cellulose and magnesium stearate were mixed and compressed to obtain a tablet core. Subsequently, the tablet cores were coated with a solution/suspension for film coating. Table 6 Tablet formulations
The tablets containg Form 2 of tolebrutinib monohydrochloride Form 2 tablets and Form 1 of tolebrutinib monohydrochloride were placed at 25°C/60% RH for 14 days, respectively. XRPD tests were performed before and after storage. The XRPD comparison plots before and after storage are shown in FIG. 26 and FIG. 27, respectively.

[6] = Crystal form before and after the tableting process (XRPD)
Description: as §1

[7] = Stability study of the solid forms under long-term, accelerated, light and oxidation conditions (HPLC and XRPD); conditions: long-term (25°C/60%RH) and accelerated (40°C/75%RH) conditions for 14 days; XRPD
[8] = light (25°C/4500lx/closed) and oxidation (in a urea peroxide atmosphere) conditions
[9] = listed as Form 1 of monohydrochloride
[10] = light, 25°C/45001x/closed, 14 days
[11] = long-term (25°C/60%RH) and accelerated (40°C/75%RH) conditions for 14 days
[12] = oxidation, in a urea peroxide atmosphere, 14 days
[13] = listed as Form 2 of monohydrochloride

Purity after placing ([1]; 25°C/60%RH/open, 10 months): 99.37%
Sample after placing ([1]; 25°C/60%RH/open, 10 months): Form 1 of monohydrochloride
Purity after placing ([1]; 40°C/75%RH/open, 10 months): 98.63%
Sample after placing ([1]; 40°C/75%RH/open, 10 months): Form 1 of monohydrochloride
time remaining stable [1, 8]: at least 14 days
time remaining stable ([1]; long-term (25°C/60% RH/open) and accelerated (40°C/75% RH/open) conditions, monohydrochloride): at least 10 months
crystal form after storage ([1]; long-term and accelerated conditions for 10 months): remains unchanged
Solubility ([2]; listed as Form 1 of the monohydrochloride salt of tolebrutinib): approximately 8.3 mg/mL
Solubility [2]: 8.26 mg/mL
DVS weight change ([3]; between 20% RH to 80% RH at 25 °C): about 1.2%
weight gain (hygroscopicity) ([3]; humidity range of 0%RH to 80%RH): ~0.9%
tensile strength ([4]; calculated with T=2H/πDL*9.8, listed as Form 1 of monohydrochloride): 1.2 MPa
hardness [4, 9]: 6.16 kg
diameters [4, 9]: 7.49 mm
thicknesses [4, 9]: 4.19 mm
time crystal form remains stable in tablets / formulation with excipients [5]: at least 14 days
crystal form before and after the tableting process [6]: remained unchanged
Compound: C=CC(=O)N1CCC[C@@H](n2c(=O)n(-c3ccc(Oc4ccccc4)cc3)c3c(N)nccc32)C1 [Form 1 of tolebrutinib monohydrochloride, tolebrutinib monohydrochloride]

Purity after ([1]; 25°C/60%RH/open, 14 days): 99.26%
Sample after placing ([1]; 25°C/60%RH/open, 14 days): Form 2 of monohydrochloride
Purity after ([1]; 40°C/75%RH/open, 14 days): 99.30%
Sample after placing ([1]; 40°C/75%RH/open, 14 days): Form 2 of monohydrochloride
time remaining stable [1, 8]: at least 14 days
Purity after [1, 10]: 99.35%
Sample after placing [1, 10]: Form 2 of monohydrochloride
time remaining stable ([1]; long-term (25°C/60% RH/open) and accelerated (40°C/75% RH/open) conditions, listed as Form 2 of monohydrochloride, monohydrochloride): at least 14 days
crystal form after storage [1, 11]: remains unchanged
Purity after [1, 12]: 99.07%
Sample after placing [1, 12]: Form 2 of monohydrochloride
solubility at 2 hours ([2]; water, thermodynamic from solid): ~7000 µg/mL
crystal form before and after DVS ([3]; XRPD before and after DVS): remained unchanged
tensile strength ([4]; calculated with T=2H/πDL*9.8, listed as Form 2 of monohydrochloride): 1.0 MPa
hardness [4, 13]: 5.33 kg
diameters [4, 13]: 7.50 mm
thicknesses [4, 13]: 4.23 mm
time crystal form remains stable in tablets / formulation with excipients [5]: at least 14 days
crystal form before and after the tableting process [6]: remained unchanged
Compound: C=CC(=O)N1CCC[C@@H](n2c(=O)n(-c3ccc(Oc4ccccc4)cc3)c3c(N)nccc32)C1 [Form 2 of tolebrutinib monohydrochloride, tolebrutinib monohydrochloride]

Compound: C=CC(=O)N1CCCC(n2c(=O)n(-c3ccc(Oc4ccccc4)cc3)c3c(N)nccc32)C1.O=C(O)C=CC(=O)O (centres unmarked) [maleate Form 1, tolebrutinib maleate]
crystal form after storage [1, 11]: remained the same crystalline form
crystal form after storage [7]: remains unchanged
